Measurements taken from US9206193B2, “Substituted norindenoisoquinolines, syntheses thereof, and methods of use” (PURDUE RESEARCH FOUNDATION, priority 2010, dated 2015).
Read-outs that look alike come from different tables or passages of the source.

How the values were obtained:
[1] = test system: NCI-H460; experiment: NCI DTP antiproliferative screen, non-small cell lung cancer NCI-H460; type: cell-based, human
Method: (§1) The norindenoisoquinolines are examined for antiproliferative activity in the National Cancer Institute's Developmental Therapeutics Program (DTP) (Boyd & Paull, Some Practical Considerations and Applications of the National Cancer Institute In Vitro Anticancer Drug Discovery Screen. Drug Development Res. 1995, 34, 91-109; Shoemaker, The NCI60 Human Tumour Cell Line Anticancer Drug screen. Nat. Rev. Cancer 2006, 6, 813-823). Each compound is evaluated against approximately 55 human cell lines representing leukemia, melanoma, and cancers of the lung, colon, brain, breast, ovary, prostate and kidney. After an initial one-dose assay at a single high dose (10^−5 M), only compounds that satisfy the pre-determined threshold inhibition criteria are selected for further 5-dose assay.

[2] = test system: DU-145; experiment: NCI DTP antiproliferative screen, prostate DU-145; type: cell-based, human
Method: as §1

[3] = test system: UACC-62; experiment: NCI DTP antiproliferative screen, melanoma UACC-62; type: cell-based, human
Method: as §1

[4] = test system: MCF7; experiment: NCI DTP antiproliferative screen, breast cancer MCF7; type: cell-based, human
Method: as §1

[5] = test system: ACHN; experiment: NCI DTP antiproliferative screen, renal cancer ACHN; type: cell-based, human
Method: as §1

[6] = test system: MOLT-4; experiment: NCI DTP antiproliferative screen, leukemia MOLT-4; type: cell-based, human; conditions: read-out: GI50 against leukemia MOLT-4
Method: as §1

[7] = test system: COLO 205; experiment: NCI DTP antiproliferative screen, colon cancer COLO 205; type: cell-based, human
Method: as §1

[8] = test system: all human cancer cell lines successfully tested; experiment: NCI DTP antiproliferative screen, mean graph midpoint; type: cell-based; conditions: average GI50 of all cell lines tested; values outside 10^-8 to 10^-4 M taken as the limits
Method: as §1

[9] = test system: HCC-2998; experiment: NCI DTP antiproliferative screen, colon cancer HCC-2998; type: cell-based, human
Method: as §1

[10] = test system: SF-295; experiment: NCI DTP antiproliferative screen, CNS cancer SF-295; type: cell-based, human
Method: as §1

[11] = test system: SF-539; experiment: NCI DTP antiproliferative screen, CNS SF-539; type: cell-based, human
Method: as §1

[12] = test system: OVCAR-3; experiment: NCI DTP antiproliferative screen, ovarian OVCAR-3; type: cell-based, human
Method: as §1

[13] = test system: CCRF-CEM; experiment: NCI DTP antiproliferative screen, leukemia CCRF-CEM; type: cell-based, human; conditions: read-out: GI50 against leukemia CCRF-CEM
Method: as §1

[14] = test system: HOP-62; experiment: NCI DTP antiproliferative screen, lung HOP-62; type: cell-based, human
Method: as §1

[15] = test system: U251; experiment: NCI DTP antiproliferative screen, CNS cancer U251; type: cell-based, human
Method: as §1

[16] = test system: HCT-116; experiment: NCI DTP antiproliferative screen, colon HCT-116; type: cell-based, human
Method: as §1

[17] = test system: SR; experiment: NCI DTP antiproliferative screen, leukemia SR; type: cell-based, human
Method: as §1

[18] = test system: SN12C; experiment: NCI DTP antiproliferative screen, renal SN12C; type: cell-based, human
Method: as §1

[19] = test system: IGROVI; experiment: NCI DTP antiproliferative screen, ovarian cancer IGROVI; type: cell-based, human
Method: as §1

[20] = test system: RPMI-8226; experiment: NCI DTP antiproliferative screen, leukemia RPMI-8226; type: cell-based, human; conditions: read-out: GI50 against leukemia RPMI-8226
Method: as §1

[21] = test system: CAKI-1; experiment: NCI DTP antiproliferative screen, renal cancer CAKI-1; type: cell-based, human
Method: as §1

Compound: COc1cc2cnc3c(c2cc1OC)Cc1c-3cc2c(c1Cn1ccnc1)OCO2 [Compound 14c, 2,3-Dimethoxy-8,9-methylenedioxy-10-(1H-imidazol-yl)methyl-11H-indeno[1,2-c]isoquinoline]
- GI50 ([1]; 1st run): 160 nM
- GI50 ([1]; 2nd run): 110 nM
- GI50 ([1]; Mean of runs): 130 nM
- GI50 [2]: 260 nM
- GI50 ([2]; 1st run, read-out: GI50 Prostate Cancer DU-145): 260 nM
- GI50 ([2]; 2nd run, read-out: GI50 Prostate Cancer DU-145): 410 nM
- GI50 ([2]; Mean of runs, read-out: GI50 Prostate Cancer DU-145): 330 nM
- GI50 [3]: 210 nM
- GI50 ([3]; 1st run, read-out: GI50 Melanoma UACC-62): 210 nM
- GI50 ([3]; 2nd run, read-out: GI50 Melanoma UACC-62): 180 nM
- GI50 ([3]; Mean of runs, read-out: GI50 Melanoma UACC-62): 200 nM
- GI50 ([4]; 1st run, read-out: GI50 Breast Cancer MCF7): 90 nM
- GI50 ([4]; 2nd run, read-out: GI50 Breast Cancer MCF7): 89 nM
- GI50 ([4]; Mean of runs, read-out: GI50 Breast Cancer MCF7): 90 nM
- GI50 ([4]; read-out: GI50 against human breast cancer cell MCF-7): 90 nM
- GI50 ([5]; 1st run): 270 nM
- GI50 ([5]; 2nd run): 300 nM
- GI50 ([5]; Mean of runs): 280 nM
- GI50 [6]: 60 nM
- GI50 ([7]; 1st run): 760 nM
- GI50 ([7]; 2nd run): 280 nM
- GI50 ([7]; Mean of runs): 510 nM
- MGM (mean graph midpoint for growth inhibition) [8]: 0.52 µM
- GI50 ([9]; 1st run): 110 nM
- GI50 ([9]; 2nd run): 2100 nM
- GI50 ([9]; Mean of runs): 1100 nM
- GI50 ([10]; 1st run): 160 nM
- GI50 ([10]; 2nd run): 130 nM
- GI50 ([10]; Mean of runs): 150 nM
- GI50 [11]: 280 nM
- GI50 [12]: 210 nM
- GI50 [13]: 37 nM
- GI50 [14]: 350 nM
- GI50 ([15]; 1st run): 150 nM
- GI50 ([15]; 2nd run): 170 nM
- GI50 ([15]; Mean of runs): 160 nM
- GI50 [16]: 160 nM
- GI50 ([17]; 1st run, read-out: GI50 Leukemia SR): 12 nM
- GI50 ([17]; Mean of runs, read-out: GI50 Leukemia SR): 12 nM
- GI50 ([17]; read-out: GI50 against leukemia SR): 12 nM
- GI50 [18]: 600 nM
- GI50 ([19]; 1st run, read-out: GI50 Ovarian Cancer IGROVI): 33 nM
- GI50 ([19]; 2nd run, read-out: GI50 Ovarian Cancer IGROVI): 210 nM
- GI50 ([19]; Mean of runs, read-out: GI50 Ovarian Cancer IGROVI): 120 nM
- GI50 ([19]; read-out: GI50 against human ovarian cancer cell IGROVI): 121 nM
- GI50 [20]: 41 nM
- GI50 ([21]; 1st run): 170 nM
- GI50 ([21]; 2nd run): 400 nM
- GI50 ([21]; Mean of runs): 290 nM
